Laboratory results as given in BigSolDB 2.1.

O=C(Nc1ccc(F)cc1F)c1cccnc1Oc1cccc(C(F)(F)F)c1
solubility (mole fraction)
Conditions | 278.15 K | 283.15 K | 288.15 K | 293.15 K | 298.15 K | 303.15 K | 308.15 K | 313.15 K | 318.15 K | 323.15 K
in DMF | 0.000523 | 0.000679 | 0.000847 | 0.00104 | 0.00127 | 0.00153 | 0.00182 | 0.00213 | 0.00255 | 0.00298
in ethanol | 0.000244 | 0.000319 | 0.000425 | 0.000537 | 0.000683 | 0.000901 | 0.00111 | 0.00142 | 0.00176 | 0.00216
in ethylene glycol | 1.42e-05 | 1.76e-05 | 2.25e-05 | 2.71e-05 | 3.28e-05 | 3.89e-05 | 4.62e-05 | 5.41e-05 | 6.34e-05 | 7.49e-05
in propylene glycol | 4.63e-05 | 5.76e-05 | 7.29e-05 | 9.02e-05 | 0.000108 | 0.000129 | 0.000152 | 0.00018 | 0.000209 | 0.000245
in water | 1.45e-07 | 2.02e-07 | 2.68e-07 | 3.33e-07 | 4.08e-07 | 4.98e-07 | 6.05e-07 | 7.25e-07 | 8.72e-07 | 1.04e-06
